US6579898B2, “Compositions having improved bioavailability” (Pfizer Inc., priority 2001, dated 2003)

Assays:
[1] = Eletriptan transport across Caco-2 cell monolayers, effect of concentration; format: in vitro ADME, human; conditions: human, 2 hours, 37° C.
Procedure: (§1) Caco-2 cell monolayers were grown on permeable 24 well filter supports (1 μm poresize) and used at Day 15-28.
(§2) In studies examining the effect of concentration, 1, 10, 25 and 100 μM solutions of eletriptan in HBSS were added to the donor chamber and Hank's balanced salt solution (HBSS) was added to the acceptor chamber. The volume of the apical and basolateral chambers were 0.25 ml and 1 ml respectively.

[2] = tested on: Human Intestinal (Caco-2) Cell Monolayers; experiment: as above; format: in vitro ADME; conditions: Caco-2, higher secretory than absorptive flux at low concentrations
Procedure: as §1, §2

[3] = Effect of Vitamin E-TPGS on the pharmacokinetics of eletriptan in beagle dogs; format: in vivo; conditions: male, dog, plasma, oral, fasted, 0.2 or 1.0 mg/kg eletriptan with or without 6.67 mg/kg Vitamin E-TGPS
Procedure: This was a crossover study to assess the effects of Vitamin E-TGPS on the rate of absorption of eletriptan. Four male beagle dogs were orally dosed in the fasted state with a 20 ml aqueous formulation comprising
(a) 0.2 mg/kg eletriptan;
(b) 0.2 mg/kg eletriptan coformulated with 6.67 mg/kg of Vitamin E-TGPS;
(c) 1.0 mg/kg eletriptan; and
(d) 1.0 mg/kg eletriptan coformulated with 6.67 mg/kg of Vitamin E-TGPS.
Blood samples (2.5 ml) were collected at 0, 0.17, 0.33, 0.5, 1, 2, 4, 6, 8, 12 and 24 hours after dosing and centrifuged. The resulting plasma samples were deep frozen until analysed for eletriptan by hplc with electrochemical detection.

[4] = biological target: p-gp (Homo sapiens, UniProt P08183); experiment: in vitro; conditions: Caco-2
[5] = in vivo

Chain of p-gp (P08183 whole entry): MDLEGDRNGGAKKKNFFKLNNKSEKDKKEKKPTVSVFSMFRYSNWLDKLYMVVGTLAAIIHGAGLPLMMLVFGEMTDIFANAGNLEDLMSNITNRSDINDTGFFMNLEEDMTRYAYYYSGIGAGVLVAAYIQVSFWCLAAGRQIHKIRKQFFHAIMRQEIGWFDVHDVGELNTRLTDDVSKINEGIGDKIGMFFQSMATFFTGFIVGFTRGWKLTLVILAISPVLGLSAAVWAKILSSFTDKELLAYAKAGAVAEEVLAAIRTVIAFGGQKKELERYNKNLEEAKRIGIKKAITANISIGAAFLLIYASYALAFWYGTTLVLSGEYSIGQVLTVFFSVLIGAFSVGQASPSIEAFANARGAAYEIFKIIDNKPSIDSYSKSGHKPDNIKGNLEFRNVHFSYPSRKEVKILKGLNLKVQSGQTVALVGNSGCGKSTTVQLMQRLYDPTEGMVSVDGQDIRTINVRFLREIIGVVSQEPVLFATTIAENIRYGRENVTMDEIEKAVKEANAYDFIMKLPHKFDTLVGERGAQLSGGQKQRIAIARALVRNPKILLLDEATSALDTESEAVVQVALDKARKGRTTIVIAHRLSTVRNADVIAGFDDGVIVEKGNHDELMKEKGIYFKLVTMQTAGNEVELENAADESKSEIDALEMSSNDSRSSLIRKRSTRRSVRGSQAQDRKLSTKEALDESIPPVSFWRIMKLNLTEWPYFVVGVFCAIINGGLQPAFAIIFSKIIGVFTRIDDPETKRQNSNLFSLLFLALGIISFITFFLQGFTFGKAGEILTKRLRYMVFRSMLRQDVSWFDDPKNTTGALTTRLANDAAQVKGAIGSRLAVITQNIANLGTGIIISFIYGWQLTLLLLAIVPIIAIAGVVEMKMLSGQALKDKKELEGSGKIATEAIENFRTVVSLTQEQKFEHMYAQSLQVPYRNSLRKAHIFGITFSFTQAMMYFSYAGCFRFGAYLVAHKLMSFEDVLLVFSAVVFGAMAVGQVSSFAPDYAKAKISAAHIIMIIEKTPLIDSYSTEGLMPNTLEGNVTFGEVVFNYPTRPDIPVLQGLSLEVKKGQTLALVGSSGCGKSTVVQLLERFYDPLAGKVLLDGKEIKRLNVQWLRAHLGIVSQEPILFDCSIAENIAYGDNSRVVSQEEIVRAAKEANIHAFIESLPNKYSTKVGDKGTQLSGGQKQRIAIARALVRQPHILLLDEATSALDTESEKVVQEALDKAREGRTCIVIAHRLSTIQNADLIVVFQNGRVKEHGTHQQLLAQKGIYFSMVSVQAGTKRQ

| SMILES | Papp A→B at 2 h, 1 μM ([1]; Caco-2, 1 μM eletriptan, read-out: Absorptive A -> B Papp) [×10⁻⁶ cm/s] | Papp B→A at 2 h, 1 μM ([1]; Caco-2, 1 μM eletriptan, read-out: Secretory B -> A Papp) [×10⁻⁶ cm/s] | Papp A→B at 2 h, 10 μM ([1]; Caco-2, 10 μM eletriptan, read-out: Absorptive A -> B Papp) [×10⁻⁶ cm/s] | Papp B→A at 2 h, 10 μM ([1]; Caco-2, 10 μM eletriptan, read-out: Secretory B -> A Papp) [×10⁻⁶ cm/s] | Papp A→B at 2 h, 25 μM ([1]; Caco-2, 25 μM eletriptan, read-out: Absorptive A -> B Papp) [×10⁻⁶ cm/s] | Papp B→A at 2 h, 25 μM ([1]; Caco-2, 25 μM eletriptan, read-out: Secretory B -> A Papp) [×10⁻⁶ cm/s] | Papp A→B at 2 h, 100 μM ([1]; Caco-2, 100 μM eletriptan, read-out: Absorptive A -> B Papp) [×10⁻⁶ cm/s] | Papp B→A at 2 h, 100 μM ([1]; Caco-2, 100 μM eletriptan, read-out: Secretory B -> A Papp) [×10⁻⁶ cm/s] | substrate for the p-gp efflux transporter [2] | Cmax [3] [ng/mL] | Tmax [3] [h] | Papp A→B at 2 h, 10 μM [4] [×10⁻⁶ cm/s] | Papp B→A at 2 h, 10 μM [4] [×10⁻⁶ cm/s] | eletriptan kel with the inhibitor [5] |
| --- | --- | --- | --- | --- | --- | --- | --- | --- | --- | --- | --- | --- | --- | --- |
| CN1CCC[C@@H]1Cc1c[nH]c2ccc(CCS(=O)(=O)c3ccccc3)cc12 [eletriptan] | 17 | 41.8 | 20.2 | 36.1 | 21.1 | 34.1 | 29.9 | 32.8 | substrate | 7 to 15 | 1 to 1.7 | 16 | 32.6 |  |
| CC[C@H]1OC(=O)[C@H](C)[C@@H](O[C@H]2C[C@@](C)(OC)[C@@H](O)[C@H](C)O2)[C@H](C)[C@@H](O[C@@H]2O[C@H](C)C[C@H](N(C)C)[C@H]2O)[C@](C)(O)C[C@@H](C)C(=O)[C@H](C)[C@@H](O)[C@]1(C)O [erythromycin] |  |  |  |  |  |  |  |  |  |  |  |  |  | significantly reduced |
| CC(=O)N1CCN(c2ccc(OCC3COC(Cn4ccnc4)(c4ccc(Cl)cc4Cl)O3)cc2)CC1 (stereo not drawn) [ketoconazole] |  |  |  |  |  |  |  |  |  |  |  |  |  | significantly reduced |
